Assay [1] has as its system XO. To be noted: cited from earlier work.
The target of assay [2] is T1, xanthine oxidase (XO) (Bos taurus, UniProt P80457). The experiment in a line: CD spectra: secondary structure of XO. Also noted: species or system bovine. The method, then: The CD spectrometer (Bio−Logic MOS 450, Claix, France) was used to determine the CD spectra to analyze the effects of ECG on the secondary structure of XO. The free XO (1.0 μM) and its mixed solutions with different molar ratios ([ECG]/[XO], 0:1, 10:1, 20:1 and 40:1) were prepared, and then the CD spectra of the samples in the range of 190−250 nm were measured in a nitrogen stream. The specific secondary structure contents were analyzed by our previous study.
T1 sequence (P80457 whole entry): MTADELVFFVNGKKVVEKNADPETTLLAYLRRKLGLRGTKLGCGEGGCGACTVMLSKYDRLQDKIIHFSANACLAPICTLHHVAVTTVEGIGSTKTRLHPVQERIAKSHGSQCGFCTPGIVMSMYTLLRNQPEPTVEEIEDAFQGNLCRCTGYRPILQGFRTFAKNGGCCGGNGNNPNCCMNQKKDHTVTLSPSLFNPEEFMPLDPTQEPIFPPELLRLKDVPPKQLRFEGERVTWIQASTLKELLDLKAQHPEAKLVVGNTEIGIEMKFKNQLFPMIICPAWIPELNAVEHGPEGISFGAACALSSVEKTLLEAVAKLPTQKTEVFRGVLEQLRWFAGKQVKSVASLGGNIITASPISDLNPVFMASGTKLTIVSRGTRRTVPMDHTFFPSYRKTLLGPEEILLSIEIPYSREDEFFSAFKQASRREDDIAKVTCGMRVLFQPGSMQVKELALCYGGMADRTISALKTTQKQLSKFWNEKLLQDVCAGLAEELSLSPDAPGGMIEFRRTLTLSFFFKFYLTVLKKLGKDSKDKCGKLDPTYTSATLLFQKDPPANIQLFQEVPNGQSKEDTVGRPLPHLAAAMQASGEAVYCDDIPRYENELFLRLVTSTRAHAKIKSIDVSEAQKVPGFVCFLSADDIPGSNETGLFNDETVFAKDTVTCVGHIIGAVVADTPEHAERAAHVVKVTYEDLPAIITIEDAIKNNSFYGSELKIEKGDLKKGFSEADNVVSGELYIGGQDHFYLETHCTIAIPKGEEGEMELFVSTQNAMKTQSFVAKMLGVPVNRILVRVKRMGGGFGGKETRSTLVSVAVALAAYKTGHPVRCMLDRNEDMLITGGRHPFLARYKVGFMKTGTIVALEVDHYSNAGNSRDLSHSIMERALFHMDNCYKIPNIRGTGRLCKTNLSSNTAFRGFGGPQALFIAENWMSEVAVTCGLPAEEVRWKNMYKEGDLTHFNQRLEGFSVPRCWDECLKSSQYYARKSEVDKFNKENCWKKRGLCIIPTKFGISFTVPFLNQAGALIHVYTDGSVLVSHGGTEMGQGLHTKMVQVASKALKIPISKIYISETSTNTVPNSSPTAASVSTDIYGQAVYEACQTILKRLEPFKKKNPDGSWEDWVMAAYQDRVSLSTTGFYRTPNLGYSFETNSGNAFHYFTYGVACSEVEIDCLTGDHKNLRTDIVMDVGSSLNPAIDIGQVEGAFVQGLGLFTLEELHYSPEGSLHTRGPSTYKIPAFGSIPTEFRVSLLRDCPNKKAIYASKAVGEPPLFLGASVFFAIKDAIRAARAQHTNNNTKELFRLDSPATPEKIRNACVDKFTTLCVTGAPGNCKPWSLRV

Assay [3] deals with T1, xanthine oxidase (XO). The experiment in a line: Fluorescence titration experiments (quenching, binding, thermodynamics, 3D fluorescence). Further details: species or system bovine. The method, then: At three experimental temperatures (25, 31, and 37 °C), XO (1.0 μM) diluted in the Tris–HCl solution was placed in a 1.0 cm cuvette, and then ECG (0–30.0 μM) was added into XO solution successively to conduct the fluorescence titration experiments. After each addition, the fluorescence spectra of the mixed solutions within 300–500 nm were scanned at an excitation wavelength of 280 nm using a fluorescence photometer (F–7000, Hitachi, Japan). The width of the excitation and emission slit was 2.5 nm, respectively. Similarly, the synchronous fluorescence spectra of XO titrated by ECG were measured by setting the difference between excitation and emission wavelength (Δλem) to 15 and 60 nm, respectively. The free XO solution and a mixed sample of XO and ECG were prepared, and then the three-dimensional (3D) fluorescence spectra of the samples were determined; the scanning ranges of both excitation and emission wavelength were 200–600 nm. All fluorescence data were corrected to subtract the internal filtering effect by the following equation [34]:(4) Fc=Fme^(A1+A2)/2 where Fc and Fm represent the […] fluorescence intensity values, respectively; A1 and A2 are the absorbances of ECG at the excitation and emission wavelengths, respectively.
The changes of fluorescence spectra can reflect the binding characteristics between inhibitor and enzyme. […] The specific quenching mechanism of ECG on XO was determined by the relationship between quenching constant (KSV) and temperature, and the values of KSV and Kq (the quenching rate constant) were calculated by the well-known Stern–Volmer equation [44]. (6) F0/F=1+KSVQ=1+Kqτ0Q where F and F0 represent the fluorescence intensity values of XO with and without ECG, respectively; Q is the concentration of ECG; the value of the average fluorescence lifetime of fluorophore for biomacromolecules (τ0) is 10^−8 s. […] Furthermore, the binding constant (Ka) and the number of binding sites (n) were calculated through the following formula:(7) logF0−F/F=nlogKa−nlog1/Qt−(F0−F)Pt/F0 where [Qt] and [Pt] represent the concentrations of ECG and XO, respectively. […] The n values were close to 1, reflecting that XO had only one class of binding sites for ECG, which was consistent with the conclusions of enzyme kinetics analysis.
The values of thermodynamic parameters of the binding process between ECG and XO, such as entropy change (ΔS°), enthalpy change (ΔH°), and free energy change (ΔG°), were obtained by the van ‘t Hoff equation:
(9) ΔG=ΔH°−TΔS° where R is the gas constant (8.314 J mol^−1 K^−1), and T is the temperatures of fluorescence titration experiments (25, 31, and 37 °C). […] A similar study reported that the formation of the ECG–α-amylase complex was mainly driven by van der Waals and hydrogen bonds.

Assay [4] addresses T1, xanthine oxidase (XO). The experiment in a line: Inhibition of O2− radical generated by XO (NBT). In kind it is biochemical, bovine. To be noted: XO 0.7 μM. Here is the method:
The O2^− radicals generated during the catalytic process of XO could also be used to assess the antioxidant activity of ECG. The XO (0.70 μM) and different concentrations of ECG were mixed in Tris–HCl buffer and incubated at 37 °C for 30 min. Then, NBT (55.0 μM) and xanthine were added to the samples, respectively, and the absorbance of the mixture at 560 nm was recorded. A small amount of Triton X−100 (0.2%, v/v) was added for solubilization and the control group was equal volume ethanol.

Assay [5] addresses T1, xanthine oxidase (XO). The assay is described as follows: Fluorescence microscopy imaging of XO. Also noted: species or system bovine. The conditions noted are these: XO 1.0 μM; ECG 40.0 μM. The method, then:
The free XO solution and the mixture of ECG and XO were prepared and incubated for 1h at room temperature. The appropriate amount of samples was placed on a microscope slide, and then the structural changes of XO induced by ECG were observed through a fluorescent inverted microscope with an excitation light of FBW (IX73, Olympus, Japan).

Assay [6] is described as follows: DPPH radical scavenging activity assay. To be noted: ECG 15 μM. The method, then:
The DPPH free radical scavenging activity of ECG was tested according to Aalim et al. with slight modification. DPPH was dissolved in ethanol, and then different concentrations of ECG were added to prepare a series of samples. The mixed solutions were protected from light and reacted for 30 min. The absorbance of the samples at 517 nm was determined by an enzyme-labeled instrument (Varioskan LUX, Thermo Fisher Scientific, Waltham, MA, USA). An equal volume of ethanol was used as a control. The free radical scavenging activity of ECG was assessed by the change of percentage in absorbance.
(In general: The DPPH test is a chemical assay of radical scavenging.)

Assay [7] has as its system polyphenoloxidase. Also noted: method as in earlier work. To be noted: ref 41 (Sae-Leaw et al.); cited from earlier work.
The target in assay [8] is T1, xanthine oxidase (XO). The assay is described as follows: XO activity assay (uric acid formation, absorbance at 293 nm). The format is biochemical, bovine.
For assay [9], the target named is T1, xanthine oxidase (XO). The assay is described as follows: Kinetic analysis of enzyme-catalyzed reaction (Lineweaver–Burk). In kind it is biochemical, bovine. From the text: The same determination method of enzyme activity was used to conduct the inhibition kinetics analysis of ECG on XO. In the presence of a series of different concentrations of ECG, the concentration of XO or xanthine was changed to determine the catalytic rate, and then the inhibition type was ascertained by the Lineweaver-Burk plots in double reciprocal form. […] Km, Ki, and α are on behalf of the Michaelis-Menten constant, dissociation constant, and apparent coefficient, respectively.

A short description of assay [10]: O2− radical scavenging activity assay (PMS–NADH system, NBT). The conditions noted are these: ECG 45.0 μM. The method, then: NBT could be reduced to blue formazan by O2^− radical produced by the PMS–NADH system; thus, this method was used to evaluate the O2^− radical scavenging activity of ECG [33]. The reaction solutions were prepared by mixing NBT (55.0 μM), NADH (0.27 mM), and different concentrations of ECG, and then 0.2 mL PMS (0.155 mM) was added to initiate the reaction. After the samples were incubated for 15 min, the absorbance at 560 nm was measured. Ethanol was used instead of ECG as the blank group, and the values of decreasing percentage in absorbance were calculated to analyze the scavenging activity of ECG.

Setting [11] is: previous study of the authors, read-out: IC50 for inhibiting XO activity.
The mark [12] stands for this setting: read-out: IC50 for inhibiting XO activity.

Where two headings read alike, the source gives them in different places.

`O=c1c(O)c(-c2cc(O)c(O)c(O)c2)oc2cc(O)cc(O)c12` [myricetin]: the IC50 in [1] (setting [11]) was 8.66 µM.

Turning to `O=C(O[C@@H]1Cc2c(O)cc(O)cc2O[C@@H]1c1ccc(O)c(O)c1)c1cc(O)c(O)c(O)c1` [ECG, Epicatechin gallate], the “Random Coil content of XO” value is on record as 25.12 ± 0.69% in [2] ([ECG]:[XO] 10:1), 24.03 ± 0.31% in assay [2] ([ECG]:[XO] 20:1) and 22.51 ± 0.24% in assay [2] ([ECG]:[XO] 40:1). Also, the “α-Helix content of XO” value in assay [2] ([ECG]:[XO] 10:1) was found to be 10.83 ± 0.51%; in assay [2] ([ECG]:[XO] 20:1), 10.96 ± 0.62%; in assay [2] ([ECG]:[XO] 40:1) it was 11.83 ± 0.93%. The “β-Sheet content of XO” value in [2] ([ECG]:[XO] 10:1) came out at 42.51 ± 0.41%; in assay [2] ([ECG]:[XO] 20:1) it was 43.41 ± 0.74%; in [2] ([ECG]:[XO] 40:1), 45.02 ± 0.22%. For the same compound, the figures for the “β-Turn content of XO” value in assay [2] ([ECG]:[XO] 10:1), in assay [2] ([ECG]:[XO] 20:1) and in assay [2] ([ECG]:[XO] 40:1) were 21.65 ± 0.94%, 21.59 ± 0.13% and 21.39 ± 0.25%, respectively. Also, the IC50 is 0.26 µM in assay [1] (ref 12 (Yuan et al.), read-out: IC50 inhibiting XO); 18.5 µM in [4] (read-out: dose at which relative inhibition rate of production of O2− radical reached 50%); 19.3 ± 0.45 µM in [8] (pH 7.4, XO 0.075 μM, xanthine 50.0 μM, read-out: IC50 for inhibiting XO activity). For the same compound, the “n values” in assay [3] (25, 31 and 37 °C) is on record as approximately 1. For the same compound, the “Kq (quenching rate constant)” value in assay [3] (25, 31 and 37 °C, compared with maximum scattering collision rate constant) is more than 2e+10 M⁻¹ s⁻¹. Further, the Kd in [3] (25, 31 and 37 °C, read-out: binding constant Ka, magnitude) was approximately 100 µM; in [3] (298 K, read-out: Ka (binding constant) (converted)), 54.9 µM; in assay [3] (304 K, read-out: Ka (binding constant) (converted)), 66.2 µM; in assay [3] (310 K, read-out: Ka (binding constant) (converted)) it was 81.3 µM. The results for the Ksv in assay [3] (298 K), in assay [3] (304 K) and in [3] (310 K) were 1.76 ± 0.02 ×10^4 L mol^−1, 1.32 ± 0.03 ×10^4 L mol^−1 and 1.15 ± 0.01 ×10^4 L mol^−1, respectively. Further, the figures for the “n (number of binding sites)” value in assay [3] (298 K), in assay [3] (304 K) and in assay [3] (310 K) were 0.91 ± 0.01, 0.95 ± 0.02 and 0.87 ± 0.02, respectively. In addition, the figures for the “ΔG°” value in assay [3] (298 K), in [3] (304 K) and in assay [3] (310 K) were -5.813 ± 0.0956 kcal/mol, -5.81 ± 0.0837 kcal/mol and -5.805 ± 0.0669 kcal/mol, respectively. Besides, the “decrease of 3D fluorescence intensity of XO peak 1 (λex/λem = 280/340 nm)” value in assay [3] (XO 1.0 μM, ECG 15.0 μM) came out at 34.36%. Further, the “decrease of 3D fluorescence intensity of XO peak 2 (λex/λem = 230/335 nm)” value in [3] (XO 1.0 μM, ECG 15.0 μM) is on record as 47.59%. Moreover, in [3] (van 't Hoff, 298–310 K), the “ΔH°” value was -5.987 ± 0.0478 kcal/mol. Moreover, in [3] (van 't Hoff, 298–310 K), the “ΔS°” value is on record as −2.44 ± 0.07 J mol^−1 K^−1. In [4] (xanthine 0.1, 0.2, 0.5 mM), the “relative inhibition rate of generation of O2− radical from XO catalysis (final plateau)” value stood at 90%. In [5], the “average area of green bright spots of XO with ECG” value was 172.31 μm^2. The DPPH radical scavenged in assay [6] is 90%. The “inhibition type on polyphenoloxidase” value in assay [7] is reported as “mixed inhibitory effect”. For the same compound, the “activity of XO at high ECG concentration” value in assay [8] (ECG 300 μM) is “almost completely inhibited”. Also, the inhibition type entry in [9] (Lineweaver–Burk plots) is listed as “mixed inhibitor”. The compound further registered a αKi in assay [9] (XO−xanthine complex) of 82.4 ± 0.70 µM. Further, the Ki in assay [9] (dissociation constant, free XO) amounted to 5.27 ± 0.24 µM. Besides, the reversibility of inhibition entry in [9] (plots of ν vs. [XO]) is recorded as “reversibly inhibited”. For the same compound, the “scavenging rate of O2− radical generated by PMS–NADH system” value in assay [10] came out at 55.64%.

Turning to `O=C(/C=C/c1ccc(O)c(O)c1)O[C@@H]1C[C@](O)(C(=O)O)C[C@@H](O)[C@H]1O` [chlorogenic acid], the IC50 in [1] (setting [12]) is 6490 µM.

Take `O=c1c(O)c(-c2ccc(O)c(O)c2)oc2cc(O)cc(O)c12` [quercetin]: the IC50 in [1] (setting [11]) is 7.23 µM.

For `O=C(O)/C=C/c1ccc(O)c(O)c1` [caffeic acid], the IC50 in [1] (setting [12]) was 7160 µM.

For the compound `O=c1c(O)c(-c2ccc(O)cc2)oc2cc(O)cc(O)c12` [kaempferol], the “inhibition manner on XO” value in assay [1] (previous study of the authors) is on record as “reversibly inhibited XO activity in a competitive manner”.

A word on the Ki: it is the dissociation constant of the complex between target and ligand, obtained from inhibition or displacement. The low end stands for tighter binding, the high end for weaker binding.

These data come from publication PMC8464939, “Epicatechin Gallate as Xanthine Oxidase Inhibitor: Inhibitory Kinetics, Binding Characteristics, Synergistic Inhibition, and Action Mechanism” (Foods, 2021).
